Experimental data reported in US20230053540A1, “TREATMENT OF LIVER INJURY” (Massachusetts Institute of Technology, priority 2019, published 2023).

System: hepatocytes
Test: Seq-Well scRNA-Seq of hepatocytes after APAP overdose (signature scores, DEG vs untreated)
Format: in vivo, mouse
[1] = A48 (48 h post-APAP) vs other clusters, Wilcox
[2] = A48 (APAP 48 h) vs untreated (UT) hepatocytes

Structure (SMILES): CC(=O)Nc1ccc(O)cc1 [APAP, acetaminophen]
- avg_logFC Ssr3 (A24 vs untreated (UT)): 0.5218
- avg_logFC Stard4 (A24 vs untreated (UT)): 0.3515
- avg_logFC Steap4 (A24 vs untreated (UT)): 0.476
- avg_logFC Tmed7 (A24 vs untreated (UT)): 0.3868
- avg_logFC Tmem30a (A24 vs untreated (UT)): 0.3328
- avg_logFC Tmem205 (A24 vs untreated (UT)): −0.4721
- avg_logFC Tram1 (A24 vs untreated (UT)): 0.4111
- avg_logFC Trp53inp1 (A24 vs untreated (UT)): 0.368
- avg_logFC Ubc (A24 vs untreated (UT)): −0.3705
- avg_logFC Ugt2a3 (A24 vs untreated (UT)): −0.3334
- avg_logFC Ugt2b1 (A24 vs untreated (UT)): −0.2895
- avg_logFC Ugt2b5 (A24 vs untreated (UT)): −0.5765
- avg_logFC Ugt2b36 (A24 vs untreated (UT)): −0.3293
- avg_logFC Uqcrq (A24 vs untreated (UT)): −0.5959
- avg_logFC Uso1 (A24 vs untreated (UT)): 0.3881
- avg_logFC Usp4 (A24 vs untreated (UT)): 0.3247
- avg_logFC Usp9x (A24 vs untreated (UT)): 0.4076
- avg_logFC Zfp683 (A24 vs untreated (UT)): −0.4214
- avg_logFC mmu-mir-6236 (A24 vs untreated (UT)): 0.7875
- avg_logFC mt-Atp6 (A24 vs untreated (UT)): −0.5737
- avg_logFC mt-Co1 (A24 vs untreated (UT)): −1.433
- avg_logFC mt-Co2 (A24 vs untreated (UT)): −1.397
- avg_logFC mt-Co3 (A24 vs untreated (UT)): −1.167
- avg_logFC mt-Cytb (A24 vs untreated (UT)): −1.571
- avg_logFC mt-Nd1 (A24 vs untreated (UT)): −1.42
- avg_logFC mt-Nd2 (A24 vs untreated (UT)): −1.242
- avg_logFC mt-Nd4 (A24 vs untreated (UT)): −1.957
- avg_logFC mt-Nd5 (A24 vs untreated (UT)): −1.384
- avg_logFC mt-Nd6 (A24 vs untreated (UT)): −0.4779
- avg_logFC mt-Rnr1 (A24 vs untreated (UT)): −0.4562
- avg_logFC mt-Rnr2 (A24 vs untreated (UT)): −0.7783
- avg_logFC mt-Tm (A24 vs untreated (UT)): 0.2847
- avg_logFC mt-Tq (A24 vs untreated (UT)): 0.2879
- avg_logFC n-R5-8s1 (A24 vs untreated (UT)): 1.253
- avg_logFC Abcb4 [1]: 0.4425
- avg_logFC Abcd2 [1]: 0.2813
- avg_logFC Abhd14b [1]: 0.4059
- avg_logFC Acad11 [1]: 0.3851
- avg_logFC Agt [1]: 0.5795
- avg_logFC Ahcy [1]: 0.34
- avg_logFC Ahsg [1]: 0.3592
- avg_logFC Aldh9a1 [1]: 0.3826
- avg_logFC Aldob [1]: 0.4375
- avg_logFC Ambp [1]: 0.286
- avg_logFC Amy1 [1]: 0.4216
- avg_logFC Angptl3 [1]: 0.6111
- avg_logFC Apoa5 [1]: 0.4484
- avg_logFC Apoc2 [1]: 0.8639
- avg_logFC Apoc3 [1]: 0.407
- avg_logFC Apoe [1]: 0.5049
- avg_logFC Apoh [1]: 0.4628
- avg_logFC Atp5b [1]: 0.3281
- avg_logFC Atp5h [1]: 0.5978
- avg_logFC Bfar [1]: 0.308
- avg_logFC Bnip3 [1]: 0.462
- avg_logFC Cdo1 [1]: 0.3971
- avg_logFC Cebpb [1]: 0.3684
- avg_logFC Ces1b [1]: 0.4829
- avg_logFC Ces1c [1]: 0.5488
- avg_logFC Chchd10 [1]: 0.7517
- avg_logFC Cox5a [1]: 0.4197
- avg_logFC Cox8a [1]: 0.552
- avg_logFC Cp [1]: 0.4274
- avg_logFC Cyp4a10 [1]: 0.9326
- avg_logFC Cyp4a14 [1]: 1.281
- avg_logFC Dbp [1]: 0.2896
- avg_logFC Ddb1 [1]: 0.3544
- avg_logFC Decr1 [1]: 0.5669
- avg_logFC Decr2 [1]: 0.4129
- avg_logFC Ech1 [1]: 0.418
- avg_logFC Echs1 [1]: 0.4649
- avg_logFC Ephx2 [1]: 0.3869
- avg_logFC F2 [1]: 0.3952
- avg_logFC F10 [1]: 0.3927
- avg_logFC F12 [1]: 0.388
- avg_logFC Fah [1]: 0.3913
- avg_logFC Fcgrt [1]: 0.4084
- avg_logFC Fkbp5 [1]: 0.2572
- avg_logFC Fth1 [1]: 0.375
- avg_logFC Gabarap [1]: 0.4014
- avg_logFC Gc [1]: 0.2979
- avg_logFC Gltscr2 [1]: 0.3432
- avg_logFC Gm6484 [1]: 0.4108
- avg_logFC Gm23935 [1]: 0.4738
- avg_logFC Grn [1]: 0.431
- avg_logFC Gstt3 [1]: 0.3384
- avg_logFC Gys2 [1]: 0.4231
- avg_logFC Hdac11 [1]: 0.3557
- avg_logFC Herpud1 [1]: 0.6044
- avg_logFC Hmgcl [1]: 0.5501
- avg_logFC Hmgcs2 [1]: 0.7687
- avg_logFC Hpx [1]: 0.3851
- avg_logFC Hrg [1]: 0.5316
- avg_logFC Hsd17b13 [1]: 0.6221
- avg_logFC Hspa8 [1]: 0.4107
- avg_logFC Khk [1]: 0.5202
- avg_logFC Lcat [1]: 0.5053
- avg_logFC Lims2 [1]: 0.3761
- avg_logFC Lpin1 [1]: 0.515
- avg_logFC Mat1a [1]: 0.7753
- avg_logFC Mfsd2a [1]: 0.6614
- avg_logFC Mlycd [1]: 0.4378
- avg_logFC Ndrg2 [1]: 0.3482
- avg_logFC Nr1i3 [1]: 0.4759
- avg_logFC Oaf [1]: 0.5021
- avg_logFC P4hb [1]: 0.2981
- avg_logFC Pabpc1 [1]: 0.4782
- avg_logFC Plin5 [1]: 0.3985
- avg_logFC Pnpla2 [1]: 0.3465
- avg_logFC Prodh2 [1]: 0.5055
- avg_logFC Rbp4 [1]: 0.3942
- avg_logFC Rdh7 [1]: 0.4684
- avg_logFC Reep6 [1]: 0.6233
- avg_logFC Retsat [1]: 0.7096
- avg_logFC Rgs16 [1]: 0.4545
- avg_logFC Rpl38 [1]: 0.3322
- avg_logFC Scand1 [1]: 0.2707
- avg_logFC Serpina3m [1]: 0.4034
- avg_logFC Serpina1d [1]: 0.3053
- avg_logFC Serping1 [1]: 0.5777
- avg_logFC Slc25a10 [1]: 0.4313
- avg_logFC Slc25a20 [1]: 0.3875
- avg_logFC Slc25a47 [1]: 0.6175
- avg_logFC Slc27a5 [1]: 0.4062
- avg_logFC Slc37a4 [1]: 0.4461
- avg_logFC Slco1a4 [1]: 0.5091
- avg_logFC Snord118 [1]: 0.4771
- avg_logFC St3gal5 [1]: 0.5549
- avg_logFC Sult1a1 [1]: 0.4827
- avg_logFC Syvn1 [1]: 0.3041
- avg_logFC Tcea3 [1]: 0.3938
- avg_logFC Tef [1]: 0.3394
- avg_logFC Tmbim4 [1]: 0.3693
- avg_logFC Tmbim6 [1]: 0.3713
- avg_logFC Ttc36 [1]: 0.5638
- avg_logFC Ttpa [1]: 0.4431
- avg_logFC Ttr [1]: 0.4225
- avg_logFC Ugt2b5 [1]: 0.4388
- avg_logFC Vnn3 [1]: 0.3008
- avg_logFC Vtn [1]: 0.5228
- avg_logFC Yipf3 [1]: 0.2785
- Gstm3 pct.1 (A48 (APAP 48 h) hepatocytes): 0.279
- Pim3 pct.1 (A48 (APAP 48 h) hepatocytes): 0.845
- Gstm3 avg_logFC [2]: −0.6277
- Pim3 avg_logFC [2]: 0.2884
- avg_logFC Acsl1 (A48A96 vs untreated (UT)): 0.2563
- avg_logFC Aldh3a2 (A48A96 vs untreated (UT)): 0.3079
- avg_logFC Atp1a1 (A48A96 vs untreated (UT)): 0.2628
- avg_logFC Atp5d (A48A96 vs untreated (UT)): 0.2501
- avg_logFC C6 (A48A96 vs untreated (UT)): −0.267
- avg_logFC Ces1e (A48A96 vs untreated (UT)): 0.2656
- avg_logFC Ctsd (A48A96 vs untreated (UT)): 0.2579
- avg_logFC Cyp4a12a (A48A96 vs untreated (UT)): −0.2771
- avg_logFC Ech1 (A48A96 vs untreated (UT)): 0.2505
- avg_logFC F5 (A48A96 vs untreated (UT)): 0.3006
- avg_logFC F9 (A48A96 vs untreated (UT)): 0.2568
- avg_logFC F12 (A48A96 vs untreated (UT)): 0.2567
- avg_logFC Fcgrt (A48A96 vs untreated (UT)): 0.2585
- avg_logFC Fn1 (A48A96 vs untreated (UT)): 0.2925
- avg_logFC Ftl1 (A48A96 vs untreated (UT)): −0.2988
- avg_logFC Gabarapl1 (A48A96 vs untreated (UT)): 0.2607
- avg_logFC Gclm (A48A96 vs untreated (UT)): 0.2588
- avg_logFC Glul (A48A96 vs untreated (UT)): 0.3795
- avg_logFC Gm4076 (A48A96 vs untreated (UT)): −0.3083
- avg_logFC Gm20594 (A48A96 vs untreated (UT)): −0.3566
- avg_logFC Gsta2 (A48A96 vs untreated (UT)): 0.2522
- avg_logFC Hadha (A48A96 vs untreated (UT)): 0.2509
- avg_logFC Hal (A48A96 vs untreated (UT)): 0.2801
- avg_logFC Hgfac (A48A96 vs untreated (UT)): 0.2522
- avg_logFC Hsd17b4 (A48A96 vs untreated (UT)): 0.2532
- avg_logFC Ifitm3 (A48A96 vs untreated (UT)): −0.2543
- avg_logFC Inmt (A48A96 vs untreated (UT)): −0.2532
- avg_logFC Lpgat1 (A48A96 vs untreated (UT)): 0.2576
- avg_logFC Lpin1 (A48A96 vs untreated (UT)): 0.2775
- avg_logFC Ndufb2 (A48A96 vs untreated (UT)): 0.2516
- avg_logFC Park7 (A48A96 vs untreated (UT)): 0.2515
- avg_logFC Pck1 (A48A96 vs untreated (UT)): 0.2719
- avg_logFC Pipox (A48A96 vs untreated (UT)): 0.2725
- avg_logFC Ppp2r5a (A48A96 vs untreated (UT)): 0.2509
- avg_logFC Ptms (A48A96 vs untreated (UT)): 0.2678
- avg_logFC Rarres1 (A48A96 vs untreated (UT)): −0.2919
- avg_logFC Rpl32 (A48A96 vs untreated (UT)): −0.2847
- avg_logFC Rpl41 (A48A96 vs untreated (UT)): −0.295
- avg_logFC Sardh (A48A96 vs untreated (UT)): 0.2692
- avg_logFC Sdhd (A48A96 vs untreated (UT)): 0.3208
- avg_logFC Sds (A48A96 vs untreated (UT)): 0.2973
- avg_logFC Sec61a1 (A48A96 vs untreated (UT)): 0.2637
- avg_logFC Serpina12 (A48A96 vs untreated (UT)): −0.3247
- avg_logFC Sfxn1 (A48A96 vs untreated (UT)): 0.3049
- avg_logFC Slc2a2 (A48A96 vs untreated (UT)): 0.2723
- avg_logFC Slc37a4 (A48A96 vs untreated (UT)): 0.2683
- avg_logFC Tmem106b (A48A96 vs untreated (UT)): 0.2704
- avg_logFC Ubb (A48A96 vs untreated (UT)): −0.2644
- avg_logFC Ubxn4 (A48A96 vs untreated (UT)): 0.2503
- avg_logFC Upb1 (A48A96 vs untreated (UT)): 0.2504
- avg_logFC Usmg5 (A48A96 vs untreated (UT)): 0.2787
- avg_logFC mmu-mir-6236 (A48A96 vs untreated (UT)): −0.4297
- avg_logFC mt-Atp6 (A48A96 vs untreated (UT)): −0.3234
- C6 A48logFC (A48 vs UT): −0.267
- Glul A48logFC (A48 vs UT): 0.3795
- Gm20594 A48logFC (A48 vs UT): −0.3566
- Rps8 A48logFC (A48 vs UT): −0.2746
